Assay results from PMC6423038, “Deferiprone: Pan-selective Histone Lysine Demethylase Inhibition Activity and Structure Activity Relationship Study” (Scientific Reports, 2019).
pIC50: −log10 of the molar value.

Key:
Test in all cases: KDM cell-free assay (AlphaScreen, BPS Bioscience)
KDM6A (UTX) = biological target: T1, KDM6A (UTX) (Homo sapiens, UniProt O15550); type: biochemical; conditions: recombinant human KDM6A (UTX); read-out: IC50
T1 construct: purchased BPS Bioscience

KDM7A (JHDM1D) = KDM7A (JHDM1D) (Homo sapiens, UniProt Q6ZMT4)
Sequence of KDM7A (JHDM1D) (Q6ZMT4 whole entry): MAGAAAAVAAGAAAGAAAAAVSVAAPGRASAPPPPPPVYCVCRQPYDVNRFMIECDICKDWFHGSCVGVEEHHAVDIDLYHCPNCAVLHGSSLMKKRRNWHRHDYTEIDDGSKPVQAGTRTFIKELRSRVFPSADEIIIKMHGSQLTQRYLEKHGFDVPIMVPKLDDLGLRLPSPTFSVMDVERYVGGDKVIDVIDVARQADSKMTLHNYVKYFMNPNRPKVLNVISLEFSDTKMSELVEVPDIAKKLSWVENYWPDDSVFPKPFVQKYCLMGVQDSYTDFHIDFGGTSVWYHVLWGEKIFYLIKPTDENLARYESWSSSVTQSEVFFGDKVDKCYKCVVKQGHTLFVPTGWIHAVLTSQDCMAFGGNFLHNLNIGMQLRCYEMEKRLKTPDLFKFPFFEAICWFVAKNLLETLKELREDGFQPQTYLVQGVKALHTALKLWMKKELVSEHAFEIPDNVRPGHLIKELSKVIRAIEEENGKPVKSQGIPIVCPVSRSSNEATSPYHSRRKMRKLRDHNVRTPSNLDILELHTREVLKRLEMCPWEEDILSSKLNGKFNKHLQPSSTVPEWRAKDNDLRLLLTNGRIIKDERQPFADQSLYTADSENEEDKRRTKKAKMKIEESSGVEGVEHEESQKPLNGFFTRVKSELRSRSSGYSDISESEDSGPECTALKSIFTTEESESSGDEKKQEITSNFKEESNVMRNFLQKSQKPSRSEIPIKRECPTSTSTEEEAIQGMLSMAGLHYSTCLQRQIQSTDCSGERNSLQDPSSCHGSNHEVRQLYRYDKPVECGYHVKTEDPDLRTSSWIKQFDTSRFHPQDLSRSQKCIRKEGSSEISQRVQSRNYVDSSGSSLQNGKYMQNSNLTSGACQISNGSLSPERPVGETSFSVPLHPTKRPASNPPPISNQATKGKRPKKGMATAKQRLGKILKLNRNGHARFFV

KDM4D (JMJD2D) = KDM4D (JMJD2D) (Homo sapiens, UniProt Q6B0I6)
KDM5B (Jarid1B) = KDM5B (Jarid1B) (Homo sapiens, UniProt Q9UGL1)
KDM4B (JMJD2B) = KDM4B (JMJD2B) (Homo sapiens, UniProt O94953)
KDM3A (JMJD1A) = KDM3A (JMJD1A) (Homo sapiens, UniProt Q9Y4C1)
KDM5A (Jarid1A) = KDM5A (Jarid1A) (Homo sapiens, UniProt P29375)
Sequence of KDM5A (Jarid1A) (P29375 whole entry): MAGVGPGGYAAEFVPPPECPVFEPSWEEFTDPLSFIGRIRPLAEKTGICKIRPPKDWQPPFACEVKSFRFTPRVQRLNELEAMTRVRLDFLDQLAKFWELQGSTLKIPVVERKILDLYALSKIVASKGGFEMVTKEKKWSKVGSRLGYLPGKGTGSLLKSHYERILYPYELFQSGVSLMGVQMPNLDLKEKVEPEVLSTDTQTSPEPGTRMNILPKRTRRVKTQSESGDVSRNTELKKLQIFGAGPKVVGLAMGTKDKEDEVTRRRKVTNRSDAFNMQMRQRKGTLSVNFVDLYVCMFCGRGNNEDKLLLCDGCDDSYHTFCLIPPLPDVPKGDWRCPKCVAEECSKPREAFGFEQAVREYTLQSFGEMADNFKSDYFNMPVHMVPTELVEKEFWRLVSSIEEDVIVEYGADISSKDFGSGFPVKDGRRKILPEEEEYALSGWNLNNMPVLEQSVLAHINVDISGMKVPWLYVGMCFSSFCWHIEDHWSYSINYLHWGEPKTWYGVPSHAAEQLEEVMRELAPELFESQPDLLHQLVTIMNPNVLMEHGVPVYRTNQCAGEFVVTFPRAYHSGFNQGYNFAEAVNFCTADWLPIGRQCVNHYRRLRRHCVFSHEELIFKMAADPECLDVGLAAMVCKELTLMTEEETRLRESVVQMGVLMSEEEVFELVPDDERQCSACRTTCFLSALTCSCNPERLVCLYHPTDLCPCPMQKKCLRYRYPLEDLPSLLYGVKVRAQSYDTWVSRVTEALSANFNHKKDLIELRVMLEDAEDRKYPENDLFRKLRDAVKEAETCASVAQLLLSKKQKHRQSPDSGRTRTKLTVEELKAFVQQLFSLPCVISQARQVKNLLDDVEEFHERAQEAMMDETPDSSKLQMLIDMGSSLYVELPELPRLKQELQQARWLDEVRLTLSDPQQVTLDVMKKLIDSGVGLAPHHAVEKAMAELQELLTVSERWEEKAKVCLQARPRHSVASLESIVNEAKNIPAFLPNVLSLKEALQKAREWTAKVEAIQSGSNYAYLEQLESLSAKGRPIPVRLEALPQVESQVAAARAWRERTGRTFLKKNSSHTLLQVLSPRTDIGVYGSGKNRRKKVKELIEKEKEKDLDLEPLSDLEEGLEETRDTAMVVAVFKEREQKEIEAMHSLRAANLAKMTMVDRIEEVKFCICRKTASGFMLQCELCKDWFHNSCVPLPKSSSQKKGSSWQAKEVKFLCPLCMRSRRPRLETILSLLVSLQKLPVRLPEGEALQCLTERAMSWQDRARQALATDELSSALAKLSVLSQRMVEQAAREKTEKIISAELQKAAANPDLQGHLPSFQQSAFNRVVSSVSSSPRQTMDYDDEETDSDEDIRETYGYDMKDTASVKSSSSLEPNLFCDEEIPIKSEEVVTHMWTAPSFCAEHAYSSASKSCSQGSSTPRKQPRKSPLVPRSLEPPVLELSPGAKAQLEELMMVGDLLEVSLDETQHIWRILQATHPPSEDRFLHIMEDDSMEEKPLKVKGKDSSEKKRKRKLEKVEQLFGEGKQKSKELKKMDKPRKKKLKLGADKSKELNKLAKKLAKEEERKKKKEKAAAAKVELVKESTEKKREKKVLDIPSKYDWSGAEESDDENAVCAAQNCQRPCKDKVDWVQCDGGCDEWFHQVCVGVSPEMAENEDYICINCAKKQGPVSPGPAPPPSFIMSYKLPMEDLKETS

KDM4C (JMJD2C) = KDM4C (JMJD2C) (Homo sapiens, UniProt Q9H3R0)
Sequence of KDM4C (JMJD2C) (Q9H3R0 whole entry): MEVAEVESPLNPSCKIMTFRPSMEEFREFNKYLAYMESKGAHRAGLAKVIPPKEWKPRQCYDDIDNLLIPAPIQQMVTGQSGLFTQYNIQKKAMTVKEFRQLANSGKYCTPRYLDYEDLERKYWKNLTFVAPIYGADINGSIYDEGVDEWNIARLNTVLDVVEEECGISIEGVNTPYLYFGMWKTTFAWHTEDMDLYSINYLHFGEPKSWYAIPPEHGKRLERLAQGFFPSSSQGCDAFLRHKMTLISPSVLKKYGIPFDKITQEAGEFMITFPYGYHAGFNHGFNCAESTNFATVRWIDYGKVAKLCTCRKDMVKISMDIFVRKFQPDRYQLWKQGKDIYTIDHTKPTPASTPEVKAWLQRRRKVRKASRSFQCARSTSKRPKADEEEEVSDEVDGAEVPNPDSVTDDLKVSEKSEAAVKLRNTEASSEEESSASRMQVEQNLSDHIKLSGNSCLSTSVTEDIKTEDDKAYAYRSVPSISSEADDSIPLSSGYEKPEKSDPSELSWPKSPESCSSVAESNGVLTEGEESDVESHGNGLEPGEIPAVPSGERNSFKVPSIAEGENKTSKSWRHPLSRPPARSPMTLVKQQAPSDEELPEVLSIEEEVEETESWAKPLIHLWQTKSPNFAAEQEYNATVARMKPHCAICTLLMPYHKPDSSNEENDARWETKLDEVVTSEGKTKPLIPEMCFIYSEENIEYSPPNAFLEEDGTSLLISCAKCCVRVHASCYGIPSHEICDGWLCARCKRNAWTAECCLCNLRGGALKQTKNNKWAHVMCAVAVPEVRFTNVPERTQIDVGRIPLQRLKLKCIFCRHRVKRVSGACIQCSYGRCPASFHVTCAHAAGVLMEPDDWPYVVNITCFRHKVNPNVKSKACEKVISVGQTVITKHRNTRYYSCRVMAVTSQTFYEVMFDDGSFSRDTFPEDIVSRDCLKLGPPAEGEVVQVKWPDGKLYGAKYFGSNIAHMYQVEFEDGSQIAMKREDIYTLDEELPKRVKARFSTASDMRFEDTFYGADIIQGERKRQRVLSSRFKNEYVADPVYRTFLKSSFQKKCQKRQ

KDM4A (JMJD2A) = biological target: T2, KDM4A (JMJD2A) (Homo sapiens, UniProt O75164); type: biochemical; conditions: recombinant human KDM4A (JMJD2A); max tested 25 μM
T2 construct: purchased BPS Bioscience

T1 sequence (O15550 whole entry): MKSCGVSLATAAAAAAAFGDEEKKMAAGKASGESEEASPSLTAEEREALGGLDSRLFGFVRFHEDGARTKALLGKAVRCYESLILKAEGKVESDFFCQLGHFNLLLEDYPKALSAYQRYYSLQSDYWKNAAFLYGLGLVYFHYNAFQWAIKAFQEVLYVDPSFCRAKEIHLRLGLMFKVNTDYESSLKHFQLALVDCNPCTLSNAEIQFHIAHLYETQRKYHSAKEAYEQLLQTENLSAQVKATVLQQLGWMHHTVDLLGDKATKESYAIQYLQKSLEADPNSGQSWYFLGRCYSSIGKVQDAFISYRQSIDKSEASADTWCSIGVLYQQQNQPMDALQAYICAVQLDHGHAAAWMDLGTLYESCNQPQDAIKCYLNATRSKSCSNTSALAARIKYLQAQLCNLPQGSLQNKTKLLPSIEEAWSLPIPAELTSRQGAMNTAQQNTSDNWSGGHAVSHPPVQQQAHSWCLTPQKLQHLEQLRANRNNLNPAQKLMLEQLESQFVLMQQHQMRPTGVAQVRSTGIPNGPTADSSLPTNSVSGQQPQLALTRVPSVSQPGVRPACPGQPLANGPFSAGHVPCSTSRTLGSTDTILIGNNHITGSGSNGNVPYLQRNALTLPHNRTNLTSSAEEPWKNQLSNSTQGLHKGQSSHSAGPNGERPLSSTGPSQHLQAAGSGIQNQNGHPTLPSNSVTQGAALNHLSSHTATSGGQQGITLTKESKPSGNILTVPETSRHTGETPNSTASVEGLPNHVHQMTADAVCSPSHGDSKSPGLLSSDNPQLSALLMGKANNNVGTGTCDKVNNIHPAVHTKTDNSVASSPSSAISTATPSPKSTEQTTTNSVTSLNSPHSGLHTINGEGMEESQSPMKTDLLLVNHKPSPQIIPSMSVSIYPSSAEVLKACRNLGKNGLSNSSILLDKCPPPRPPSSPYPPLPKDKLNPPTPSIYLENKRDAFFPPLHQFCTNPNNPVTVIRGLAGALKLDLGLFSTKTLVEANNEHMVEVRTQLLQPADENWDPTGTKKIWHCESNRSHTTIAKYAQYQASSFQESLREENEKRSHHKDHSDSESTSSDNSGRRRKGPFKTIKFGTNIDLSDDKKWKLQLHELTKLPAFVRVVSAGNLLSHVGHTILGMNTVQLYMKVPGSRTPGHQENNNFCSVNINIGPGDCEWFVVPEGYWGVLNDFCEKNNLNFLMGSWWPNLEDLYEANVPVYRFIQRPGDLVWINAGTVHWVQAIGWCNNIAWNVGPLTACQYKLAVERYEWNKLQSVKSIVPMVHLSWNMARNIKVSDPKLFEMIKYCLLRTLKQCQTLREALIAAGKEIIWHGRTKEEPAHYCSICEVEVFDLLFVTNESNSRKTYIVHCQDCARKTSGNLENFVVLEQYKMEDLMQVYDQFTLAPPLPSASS

`Cc1c(O)c(=O)ccn1C` [DFP, Deferiprone] was tested, and the pIC50 (KDM6A (UTX)) was 5.38, the pIC50 (KDM7A (JHDM1D)) was 4.78 and the pIC50 (KDM4D (JMJD2D)) was < 4.60. The pIC50 (KDM5B (Jarid1B)) was < 4.60, the pIC50 (KDM4B (JMJD2B)) was < 4.60 and the pIC50 (KDM3A (JMJD1A)) was < 4.60. The pIC50 (KDM5A (Jarid1A)) was < 4.60, the pIC50 (KDM4C (JMJD2C)) was < 4.60 and the pIC50 (KDM4A (JMJD2A)) was < 4.60.
